According to ChEMBL document CHEMBL3045770, “Design and synthesis of some thieno[2,3-c]pyridazine derivatives of expected anticancer activity” (2013):

Legend:
Format in all cases: functional
[1] = system: SF-539; assay: Cytotoxicity against Homo sapiens (human) SF539 cells after 48 hr by SRB assay; conditions: SF-539, 48 h
[2] = system: U-251; assay: Cytotoxicity against Homo sapiens (human) U251 cells after 48 hr by SRB assay; conditions: U-251, 48 h
[3] = system: OVCAR-5; assay: Cytotoxicity against Homo sapiens (human) OVCAR5 cells after 48 hr by SRB assay; conditions: OVCAR-5, 48 h
[4] = system: IGROV-1; assay: Cytotoxicity against Homo sapiens (human) IGROV1 cells after 48 hr by SRB assay; conditions: IGROV-1, 48 h
[5] = system: HT-29; assay: Cytotoxicity against Homo sapiens (human) HT-29 cells after 48 hr by SRB assay; conditions: HT-29, 48 h
[6] = system: K562; assay: Cytotoxicity against Homo sapiens (human) K562 cells after 48 hr by SRB assay; conditions: K562, 48 h
[7] = system: A498; assay: Cytotoxicity against Homo sapiens (human) A498 cells after 48 hr by SRB assay; conditions: A498, 48 h
[8] = system: SK-MEL-5; assay: Cytotoxicity against Homo sapiens (human) SK-MEL-5 cells after 48 hr by SRB assay; conditions: SK-MEL-5, 48 h
[9] = system: MOLT-4; assay: Cytotoxicity against Homo sapiens (human) MOLT4 cells after 48 hr by SRB assay; conditions: MOLT-4, 48 h
[10] = system: HOP-92; assay: Cytotoxicity against Homo sapiens (human) HOP92 cells after 48 hr by SRB assay; conditions: HOP-92, 48 h
[11] = system: OVCAR-4; assay: Cytotoxicity against Homo sapiens (human) OVCAR4 cells after 48 hr by SRB assay; conditions: OVCAR-4, 48 h
[12] = system: A549; assay: Cytotoxicity against Homo sapiens (human) A549 cells after 48 hr by SRB assay; conditions: A549, 48 h
[13] = system: RPMI-8226; assay: Cytotoxicity against Homo sapiens (human) RPMI8226 cells after 48 hr by SRB assay; conditions: RPMI-8226, 48 h
[14] = read-out: LC50 (the source's name)

SMILES: Oc1c(-c2nnc(-c3ccc(Cl)cc3)o2)sc2nnc(-c3ccccc3)c(-c3ccccc3)c12
- GI50 [1]: 4.75 µM
- TGI [1]: 15.8 µM
- CC50 [1, 14]: 0.0183 µM
- GI50 [2]: 3.55 µM
- TGI [2]: 18.3 µM
- CC50 [2, 14]: 0.0183 µM
- GI50 [3]: 2.18 µM
- TGI [3]: 18.3 µM
- CC50 [3, 14]: 0.0183 µM
- GI50 [4]: 3.66 µM
- TGI [4]: 6.35 µM
- CC50 [4, 14]: 0.0183 µM
- GI50 [5]: 4.56 µM
- TGI [5]: 9.1 µM
- CC50 [5, 14]: 0.0183 µM
- GI50 [6]: 4.17 µM
- TGI [6]: 18.3 µM
- CC50 [6, 14]: 0.0183 µM
- GI50 [7]: 5.92 µM
- TGI [7]: 12.5 µM
- CC50 [7, 14]: 0.0183 µM
- GI50 [8]: 5.41 µM
- TGI [8]: 9.1 µM
- CC50 [8, 14]: 0.0136 µM
- GI50 [9]: 4.47 µM
- TGI [9]: 18.3 µM
- CC50 [9, 14]: 0.0183 µM
- GI50 [10]: 3.21 µM
- TGI [10]: 6.74 µM
- CC50 [10, 14]: 0.0183 µM
- GI50 [11]: 4.75 µM
- TGI [11]: 18.3 µM
- CC50 [11, 14]: 0.0183 µM
- GI50 [12]: 4.65 µM
- TGI [12]: 14.8 µM
- CC50 [12, 14]: 0.0183 µM
- GI50 [13]: 3.97 µM
- TGI [13]: 18.3 µM
- CC50 [13, 14]: 0.0183 µM
